Data: ChEMBL document CHEMBL5614448, “Current Trends in Psychedelic Science: Integrating Modified Lysergic Acid Derivatives and Psilocybin in Modern Medicine” (ACS Med Chem Lett, 2024)

What was measured:
[1] = target: T1, 5-hydroxytryptamine receptor 2A (Homo sapiens, UniProt P28223); test: Displacement of [125I]DOI from 5-HT2A receptor (unknown origin) assessed as inhibition constant
[2] = target: T1, 5-hydroxytryptamine receptor 2A; test: Activation of human 5-HT2A receptor
[3] = target: T1, 5-hydroxytryptamine receptor 2A; test: Activation of human 5-HT2A receptor assessed as maximal activation relative to control; details: filed as activator

T1 sequence (P28223 whole entry): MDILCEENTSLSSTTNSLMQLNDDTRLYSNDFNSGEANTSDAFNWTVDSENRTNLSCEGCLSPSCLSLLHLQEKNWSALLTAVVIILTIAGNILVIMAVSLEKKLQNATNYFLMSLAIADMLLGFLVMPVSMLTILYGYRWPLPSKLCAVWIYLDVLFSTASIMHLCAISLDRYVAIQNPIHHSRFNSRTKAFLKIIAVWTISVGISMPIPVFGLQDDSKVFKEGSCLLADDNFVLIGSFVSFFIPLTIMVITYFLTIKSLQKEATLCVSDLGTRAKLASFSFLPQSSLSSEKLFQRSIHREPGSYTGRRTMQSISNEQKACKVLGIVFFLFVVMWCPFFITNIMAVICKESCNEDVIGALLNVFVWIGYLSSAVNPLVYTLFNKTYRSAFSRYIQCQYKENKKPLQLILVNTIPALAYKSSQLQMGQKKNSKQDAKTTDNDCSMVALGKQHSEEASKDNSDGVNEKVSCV

SMILES	Ki [1]	EC50 [2]	max activation [3]
CN(CC(F)(F)F)C(=O)[C@@H]1C=C2c3cccc4[nH]cc(c34)C[C@H]2N(C)C1	0.26 nM	9.1 nM	72%
CCN(CC(F)F)C(=O)[C@@H]1C=C2c3cccc4[nH]cc(c34)C[C@H]2N(C)C1	0.21 nM	0.76 nM	77%
CCN(CCF)C(=O)[C@@H]1C=C2c3cccc4[nH]cc(c34)C[C@H]2N(C)C1	0.34 nM	0.43 nM	69%
CN1C[C@H](C(=O)N(CC(F)F)CC(F)F)C=C2c3cccc4[nH]cc(c34)C[C@H]21	0.33 nM	0.9 nM	82%
CCN(CC(F)(F)F)C(=O)[C@@H]1C=C2c3cccc4[nH]cc(c34)C[C@H]2N(C)C1	0.45 nM	3.2 nM	82%
CCN(CC#N)C(=O)[C@@H]1C=C2c3cccc4[nH]cc(c34)C[C@H]2N(C)C1	0.19 nM	0.88 nM	68%
C#CCN(CC)C(=O)[C@@H]1C=C2c3cccc4[nH]cc(c34)C[C@H]2N(C)C1	0.36 nM	0.83 nM	68%
C#CCN(C)C(=O)[C@@H]1C=C2c3cccc4[nH]cc(c34)C[C@H]2N(C)C1	0.54 nM	0.98 nM	70%
CN1C[C@H](C(=O)N(CCF)CC(F)F)C=C2c3cccc4[nH]cc(c34)C[C@H]21	0.43 nM	0.25 nM	78%
